Test results from patent publication US11268064B2, “Lactobacillus rhamnosus RHT-3201 conjugated to polysaccharide polymer binder, and use thereof for prevention or treatment of atopic diseases” (IL DONG PHARMACEUTICAL CO., LTD., priority 2014, dated 2022).

What was measured:
[1] = tested on: severe atopic dermatitis-induced NC/Nga mice; test: Severe atopic dermatitis model, SCORAD evaluation; type: in vivo; conditions: baseline, before treatment with test materials; positive control group
Experimental: RHT-3201 according to the present invention was used as a test material, while steroid-based dexamethasone (Sigma Co. Ltd), which is used as a main therapeutic agent for severe atopic dermatitis, was used as a positive control. An extract of Dermatophagoides farina, which is a major species of house dust mite, was used as an atopy inducing material. The extract was purchased in an ointment form from Central Lab. Animal Inc.
The dexamethasone was prepared by being dissolved in ethanol into a concentration of 0.1% (w/v), and RHT-3201 of the present invention was prepared by being dissolved in distilled water to doses of 1×10^8 CFU/0.5 ml/mouse, 1×10^9 CFU/0.5 ml/mouse, and 1×10^10 CFU/0.5 ml/mouse, respectively. […]
In the present evaluation, the severity of atopic dermatitis was expressed as a total of evaluation scores of five items, using SCORAD (SCORing Atopic Dermatitis), which is a generally used method for clinical macroscopic evaluation. […] The scores for the five items (no symptom (score 0), mild symptom (score 1), moderate symptom (score 2), severe symptom (score 3) for each item) were added up, while the evaluation score was determined between the lowest score of 0 (a state in which there is no symptom) and the highest score of 15 (a state in which the symptoms for all items were severe). The severity of the mouse skin lesions was evaluated every week (see FIG. 6). […]

[2] = Body weight measurement during administration; type: in vivo, NC/Nga mice; conditions: administration during eight weeks; dexamethasone transdermal, RHT-3201 oral (FIG. 9)
Experimental: The dexamethasone was prepared by being dissolved in ethanol into a concentration of 0.1% (w/v), and RHT-3201 of the present invention was prepared by being dissolved in distilled water to doses of 1×10^8 CFU/0.5 ml/mouse, 1×10^9 CFU/0.5 ml/mouse, and 1×10^10 CFU/0.5 ml/mouse, respectively. All the samples to be administered were prepared on the testing day. The dexamethasone was coated on the skin of a testing subject at 100 μl for each subject twice a week, while RHT-3201 according to the present invention was orally administered at 0.5 ml for each subject using a mouse zonde once a day. Distilled water was administered for a normal group and an atopy control group. The administration was conducted for 8 weeks in all the test groups.
The number of scratching behaviors for 15 minutes was counted once a week from week 1 of administration of a test drug. Only the number of scratching behaviors using a hind leg was counted in order to avoid counting scratching behaviors due to the other causes besides scratching behaviors due to pruritus. Meanwhile, the weight loss tends to occur due to side effects of drugs and stress at the time of inducing severe atopic dermatitis. In order to investigate whether the side effect of weight loss occurs by the test materials of the present invention, the test animals were weighed during the administration period of the test materials.

C[C@@H]1C[C@H]2[C@@H]3CCC4=CC(=O)C=C[C@]4(C)[C@@]3(F)[C@@H](O)C[C@]2(C)[C@@]1(O)C(=O)CO [Dexamethasone, dexamethasone]
Severe atopic dermatitis score Mean ± SE (n = 6) [1]: 10.8 ± 0.4 | change in body weight [2]: weight loss for 4 weeks
